The values that follow come from patent publication US20230011869A1 (Hoffmann-La Roche Inc., priority 2018, published 2023).

Structures can show the parent of a compound that is named as a salt. Where two headings read alike, the source gives them in different places.

This test concerns Acinetobacter baumannii ATCC17978. The test is described as follows: Antimicrobial susceptibility testing: 90% growth inhibitory concentration (IC90) determination, Iso-Sensitest broth. It is filed as cell-based. As for the experimental part:
Antimicrobial Susceptibility Testing:
90% Growth Inhibitory Concentration (IC90) Determination
The in vitro antimicrobial activity of the compounds was determined according to the following procedure:
The assay used a 10-points Iso-Sensitest broth medium to measure quantitatively the in vitro activity of the compounds against Acinetobacter baumannii ATCC17978 and Acinetobacter baumannii ATCC17961.
Microtiter plates were incubated at 35±2° C.
Bacterial cell growth was determined with the measurement of optical density at λ=600 nm each 20 minutes over a time course of 16 h. Growth inhibition was calculated during the logarithmic growth of the bacterial cells with determination of the concentration inhibiting 50% (IC50) and 90% (IC90) of the growth.

The mark [1] stands for this setting: Acinetobacter baumannii, ATCC17978, 16 h, read-out: ATCC17978 IC90, 90% growth inhibitory concentration, Acinetobacter baumannii ATCC17978, Iso-Sensitest broth, OD 600 nm over 16 h.
Setting [2] is: 90% growth inhibitory concentration, Acinetobacter baumannii ATCC17978, Iso-Sensitest broth, OD 600 nm over 16 h, read-out: ATCC17978 IC90.

`COc1cc(Cl)c(-c2cnc3c(Nc4ccc(C(=O)N5CCC(CN)CC5)c(C)c4)nccn23)cc1F` [Example 26, [4-(aminomethyl)-1-piperidyl]-[4-[[3-(2-chloro-5-fluoro-4-methoxy-phenyl)imidazo[1,2-a]pyrazin-8-yl]amino]-2-methyl-phenyl]methanone hydrochloride]: the IC90 under setting [1] turned out to be 0.37 µM.

Regarding `COc1ccc(-c2cnc3c(Nc4ccc(C(=O)N5CCN(CCN(C)C)CC5)c(C)c4)nccn23)c(F)c1F` [Example 27], the IC90 under setting [2] amounted to 0.16 µM.

As to `COc1ccc(-c2cnc3c(Nc4ccc(C(=O)N5CCC(CN)CC5)c(C)c4)nccn23)c(F)c1F` [Example 28, (4-(aminomethyl)piperidin-1-yl)(4-((3-(2,3-difluoro-4-methoxyphenyl)imidazo[1,2-a]pyrazin-8-yl)amino)-2-methylphenyl)methanone], the IC90 under setting [2] worked out at 0.17 µM.

Consider `COc1ccc(-c2cnc3c(Nc4ccc(C(=O)N5CCC(CN(C)C)CC5)c(C)c4)nccn23)c(F)c1F` [Example 29, (4-((3-(2,3-difluoro-4-methoxyphenyl)imidazo[1,2-a]pyrazin-8-yl)amino)-2-methylphenyl)(4-((dimethylamino)methyl)piperidin-1-yl)methanone], for which the IC90 under setting [2] turned out to be 0.12 µM.

`CCc1cc(Nc2nccn3c(-c4ccc(OCC#N)c(F)c4F)cnc23)ccc1C(=O)N1CCN(CCN(C)C)CC1` [Example 30, 2-(4-(8-((4-(4-(2-(dimethylamino)ethyl)piperazine-1-carbonyl)-3-ethylphenyl)amino)imidazo[1,2-a]pyrazin-3-yl)-2,3-difluorophenoxy)acetonitrile]: the IC90 under setting [2] was found to be 0.13 µM.

On to `Cc1cc(Nc2nccn3c(-c4ccc(OCC#N)c(F)c4F)cnc23)ccc1C(=O)N1CCC(CN)CC1` [Example 31, 2-[4-[8-[4-[4-(aminomethyl)piperidine-1-carbonyl]-3-methyl-anilino]imidazo[1,2-a]pyrazin-3-yl]-2,3-difluoro-phenoxy]acetonitrile;2,2,2-trifluoroacetic acid], for which the IC90 under setting [2] came to 0.12 µM.

As for `Cc1cc(Nc2nccn3c(-c4cc(F)c(OCC#N)cc4Cl)cnc23)ccc1C(=O)N1CCC(C(=O)N2CCNC(CO)C2)CC1` (stereo not shown) [Example 32, 2-[5-chloro-2-fluoro-4-[8-[4-[4-[3-(hydroxymethyl)piperazine-1-carbonyl]piperidine-1-carbonyl]-3-methyl-anilino]imidazo[1,2-a]pyrazin-3-yl]phenoxy]acetonitrile;2,2,2-trifluoroacetic acid], under setting [2], the IC90 amounted to 0.21 µM.

Consider `Cc1cc(Nc2nccn3c(-c4ccc(OC(F)F)cc4)cnc23)ccc1C(=O)N1CCC(C(=O)N2C[C@H](CO)[C@@H](O)[C@H](O)C2)CC1` [Example 33, (1-(4-((3-(4-(difluoromethoxy)phenyl)imidazo[1,2-a]pyrazin-8-yl)amino)-2-methylbenzoyl)piperidin-4-yl)((3R,4R,5R)-3,4-dihydroxy-5-(hydroxymethyl)piperidin-1-yl)methanone], for which the IC90 under setting [2] was determined as 0.23 µM.

Regarding `COc1ccc(-c2cnc3c(Nc4ccc(C(=O)N5CCC(CN)CC5)c(C)c4)nccn23)cc1F` [Example 34, (4-(aminomethyl)piperidin-1-yl)(4-((3-(3-fluoro-4-methoxyphenyl)imidazo[1,2-a]pyrazin-8-yl)amino)-2-methylphenyl)methanone hydrochloride], the IC90 under setting [1] amounted to 0.19 µM.

In the case of `COc1ccc(-c2cnc3c(Nc4ccc(C(=O)N5CCN(CCN(C)C)CC5)c(C)c4)nccn23)cc1F` [Example 35, (4-(2-(dimethylamino)ethyl)piperazin-1-yl)(4-((3-(3-fluoro-4-methoxyphenyl)imidazo[1,2-a]pyrazin-8-yl)amino)-2-methylphenyl)methanone], the IC90 under setting [2] was found to be 0.25 µM.

Take `Cc1cc(Nc2nccn3c(-c4ccc(OC(F)F)cc4)cnc23)ccc1C(=O)N1CCC(N2CCN(C)CC2)CC1` [Example 36, (4-((3-(4-(difluoromethoxy)phenyl)imidazo[1,2-a]pyrazin-8-yl)amino)-2-methylphenyl)(4-(4-methylpiperazin-1-yl)piperidin-1-yl)methanone]: under setting [2], the IC90 came to 0.25 µM.

Regarding `Cc1cc(Nc2nccn3c(-c4ccc(OC(F)F)cc4)cnc23)ccc1C(=O)N1CCN(C(=O)CN)CC1` [Example 37, 2-amino-1-(4-(4-((3-(4-(difluoromethoxy)phenyl)imidazo[1,2-a]pyrazin-8-yl)amino)-2-methylbenzoyl)piperazin-1-yl)ethanone hydrochloride], under “read-out: ATCC17978 IC90, 90% growth inhibitory concentration, Acinetobacter baumannii ATCC17978, Iso-Sensitest broth, OD 600 nm over 16 h, hydrochloride”, the IC90 came to 0.18 µM.

Regarding `Cc1cc(Nc2nccn3c(-c4ccc(OC(F)F)cc4)cnc23)ccc1C(=O)N1CCN(C(=O)CN(C)C)CC1` [Example 38, 1-(4-(4-((3-(4-(difluoromethoxy)phenyl)imidazo[1,2-a]pyrazin-8-yl)amino)-2-methylbenzoyl)piperazin-1-yl)-2-(dimethylamino)ethanone], the IC90 under setting [2] turned out to be 0.22 µM.

With `COc1ccc(-c2cnc3c(Nc4ccc(C(=O)N5CCC(C(=O)N6CCOC(CN)C6)CC5)c(C)c4)nccn23)cc1F` (stereo not shown) [Example 39, (4-(2-(aminomethyl)morpholine-4-carbonyl)piperidin-1-yl)(4-((3-(3-fluoro-4-methoxyphenyl)imidazo[1,2-a]pyrazin-8-yl)amino)-2-methylphenyl)methanone hydrochloride], the IC90 under setting [2] turned out to be 0.26 µM.

As to `CNCCNC(=O)C1CCN(C(=O)c2ccc(Nc3nccn4c(-c5ccc(OC)c(F)c5)cnc34)cc2C)CC1` [Example 40, 1-(4-((3-(3-fluoro-4-methoxyphenyl)imidazo[1,2-a]pyrazin-8-yl)amino)-2-methylbenzoyl)-N-(2-(methylamino)ethyl)piperidine-4-carboxamide hydrochloride], the IC90 under setting [2] is 0.28 µM.

Regarding `COc1ccc(-c2cnc3c(Nc4ccc(C(=O)N5CCN(c6nccn6C)CC5)c(C)c4)nccn23)cc1F` [Example 41, (4-((3-(3-fluoro-4-methoxyphenyl)imidazo[1,2-a]pyrazin-8-yl)amino)-2-methylphenyl)(4-(1-methyl-1H-imidazol-2-yl)piperazin-1-yl)methanone], under setting [2], the IC90 worked out at 0.11 µM.

Regarding `COc1ccc(-c2cnc3c(Nc4ccc(C(=O)N5CCNCC5CO)c(C)c4)nccn23)cc1F` (stereo not shown) [Example 42, (4-((3-(3-fluoro-4-methoxyphenyl)imidazo[1,2-a]pyrazin-8-yl)amino)-2-methylphenyl)(2-(hydroxymethyl)piperazin-1-yl)methanone], the IC90 under setting [2] amounted to 0.27 µM.

`Cc1cc(Nc2nccn3c(-c4ccc(OC(F)F)cc4)cnc23)ccc1C(=O)N1CCC(C(=O)N2CCOC(CN)C2)CC1` (stereo not shown) [Example 43, (4-(2-(aminomethyl)morpholine-4-carbonyl)piperidin-1-yl)(4-((3-(4-(difluoromethoxy)phenyl)imidazo[1,2-a]pyrazin-8-yl)amino)-2-methylphenyl)methanone hydrochloride]: the IC90 under setting [1] was 0.22 µM.

As to `Cc1cc(Nc2nccn3c(-c4ccc(OC(F)F)cc4)cnc23)ccc1C(=O)N1CCC(C(=O)N2CC3(C2)CN(C2CC2)C3)CC1` [Example 44, (4-(6-cyclopropyl-2,6-diazaspiro[3.3]heptane-2-carbonyl)piperidin-1-yl)(4-((3-(4-(difluoromethoxy)phenyl)imidazo[1,2-a]pyrazin-8-yl)amino)-2-methylphenyl)methanone], the IC90 under setting [2] was 0.28 µM.

Take `Cc1cc(Nc2nccn3c(-c4ccc(OC(F)F)cc4)cnc23)ccc1C(=O)N1CCC(N2CCNCC2)CC1` [Example 45, (4-((3-(4-(difluoromethoxy)phenyl)imidazo[1,2-a]pyrazin-8-yl)amino)-2-methylphenyl)(4-(piperazin-1-yl)piperidin-1-yl)methanone hydrochloride]: under setting [1], the IC90 was 0.19 µM.

For the compound `COc1ccc(-c2cnc3c(Nc4ccc(C(=O)N5CCC(C(=O)NCCCN(C)C)CC5)c(C)c4)nccn23)cc1F` [Example 46, N-[3-(dimethylamino)propyl]-1-[4-[[3-(3-fluoro-4-methoxyphenyl)imidazo[1,2-a]pyrazin-8-yl]amino]-2-methylbenzoyl]piperidine-4-carboxamide], the IC90 under setting [2] amounted to 0.2 µM.

Regarding `COc1ccc(-c2cnc3c(Nc4ccc(C(=O)N5CCC(C(=O)NCCN(C)C)CC5)c(C)c4)nccn23)cc1F` [Example 47, N-[2-(dimethylamino)ethyl]-1-[4-[[3-(3-fluoro-4-methoxyphenyl)imidazo[1,2-a]pyrazin-8-yl]amino]-2-methylbenzoyl]piperidine-4-carboxamide], the IC90 under setting [2] is 0.14 µM.

With `COc1ccc(-c2cnc3c(Nc4ccc(C(=O)N5CCC(C(=O)N6CCNC(C(=O)O)C6)CC5)c(C)c4)nccn23)cc1F` (stereo not shown) [Example 48, 4-[1-[4-[[3-(3-fluoro-4-methoxyphenyl)imidazo[1,2-a]pyrazin-8-yl]amino]-2-methylbenzoyl]piperidine-4-carbonyl]piperazine-2-carboxylic acid;hydrochloride], the IC90 under setting [2] came out at 0.93 µM.

As for `CNCCCNC(=O)C1CCN(C(=O)c2ccc(Nc3nccn4c(-c5ccc(OC)c(F)c5)cnc34)cc2C)CC1` [Example 49, 1-(4-((3-(3-fluoro-4-methoxyphenyl)imidazo[1,2-a]pyrazin-8-yl)amino)-2-methylbenzoyl)-N-(3-(methylamino)propyl)piperidine-4-carboxamide hydrochloride], the IC90 under setting [1] turned out to be 0.27 µM.

Regarding `CN[C@@H]1CCN(C(=O)C2CCN(C(=O)c3ccc(Nc4nccn5c(-c6ccc(OC)c(F)c6)cnc45)cc3C)CC2)C1` [Example 50, (R)-(1-(4-((3-(3-fluoro-4-methoxyphenyl)imidazo[1,2-a]pyrazin-8-yl)amino)-2-methylbenzoyl)piperidin-4-yl)(3-(methylamino)pyrrolidin-1-yl)methanone hydrochloride], the IC90 under setting [1] was found to be 0.29 µM.
